What was measured:
[1] = PPI/NSAID drug substance compatibility: storage of lansoprazole/NSAID mixtures with and without buffer; assay type: physicochemical
Protocol: Various NSAIDs were combined with lansoprazole with and without a buffer to determine the compatibility of the components. The various mixtures were placed at room temperature and 40° C. with 75% relative humidity. The samples were tested initially and after two weeks at the storage conditions above. The results are reported in Table 1 below as a percent of the theoretical amount of a given component.

[2] = Potency by HPLC and compatibility on storage of granulations and drug substances; assay type: physicochemical; conditions: for Potency 2 Weeks Extreme Conditions, NSAID: 2 weeks at 40° C. with 75% to 85% relative humidity; for Potency 4 Weeks Extreme Conditions, NSAID: 4 weeks at 40° C. with 75% to 85% relative humidity; for Potency 19 Days RT, NSAID: 19 days at room temperature; for Potency 33 Days RT, NSAID: 33 days at room temperature
Protocol: In this example, granulations of a PPI and various NSAIDs were prepared to determine the compatibility of these substances with each other in a granulated form.
The potency (mg/g) of each drug substance in each granulation was determined by HPLC.
Granulations A, C, and D, as well as naproxen and piroxicam drag substances were weighed and separately placed in scintillation vials and stored at room temperature (RT) and at 40° C. with 75% to 85% relative humidity (“Extreme Conditions”). Granulations A, C, and D, as well as the naproxen and piroxicam, were tested for potency of the lansoprazole and NSAID after 19 and 33 days at the room temperature conditions and after two and four weeks under the Extreme Conditions.

SMILES | % of Theory, 40° C. 75% humidity, lanso ([1]; lansoprazole recovered after two weeks at 40° C. with 75% relative humidity) | % of Theory, Room Temp., lanso ([1]; lansoprazole recovered after two weeks at room temperature) | % of Theory, Initial, lanso ([1]; lansoprazole recovered, initial) | Potency 2 Weeks Extreme Conditions, NSAID [2] | Potency 4 Weeks Extreme Conditions, NSAID [2] | Potency 19 Days RT, NSAID [2] | Potency 33 Days RT, NSAID [2]
Cc1c(OCC(F)(F)F)ccnc1C[S+]([O-])c1nc2ccccc2[nH]1 (centres unmarked) [Lansoprazole, lansoprazole] | 99.1/NA % | 99.1/NA % | 100.8/NA % | – | – | – | –
COc1ccc2cc([C@H](C)C(=O)O)ccc2c1 [Naproxen, naproxen] | – | – | – | NA/996.7 mg/g | NA/1000.9 mg/g | NA/997.2 mg/g | NA/998.2 mg/g
CN1C(C(=O)Nc2ccccn2)=C(O)c2ccccc2S1(=O)=O [Piroxicam, piroxicam] | – | – | – | NA/942.2 mg/g | NA/1005.5 mg/g | NA/1027.1 mg/g | NA/998.5 mg/g

Reference: patent publication US20090075950A1, “Dosage Forms Containing A PPI, NSAID And A Buffer” (Takeda Pharmaceuticals North America, Inc., priority 2002, published 2009)
